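48-hour exposure; five concentrations; linearly interpolated endpoints. Abbreviation: GI50, concentration required for 50% inhibition of growth. TGI is the concentration that stops growth completely.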
Tests used:
Assay in all cases: growth of human tumour cells (NCI), 48 h
HCT-15 colon = tested on: HCT-15 colon
ACHN renal = tested on: ACHN renal
HOP-92 NSCLC = tested on: HOP-92 NSCLC
SNB-75 CNS = tested on: SNB-75 CNS
786-0 renal = tested on: 786-0 renal
SK-MEL-2 melanoma = tested on: SK-MEL-2 melanoma
SN12C renal = tested on: SN12C renal
HOP-62 NSCLC = tested on: HOP-62 NSCLC
PC-3 prostate = tested on: PC-3 prostate
BT-549 breast = tested on: BT-549 breast

CCC[CH2][Sn]1([CH2]CCC)[O]C(=O)c2cc(C)ccc2[O]1
GI50 (HCT-15 colon): 0.446 µM | TGI (HCT-15 colon): 1.45 µM | GI50 (ACHN renal): 0.457 µM | TGI (ACHN renal): 1.59 µM | GI50 (HOP-92 NSCLC): 0.327 µM | TGI (HOP-92 NSCLC): 1.65 µM | GI50 (SNB-75 CNS): 0.291 µM | TGI (SNB-75 CNS): 1.2 µM | GI50 (786-0 renal): 0.215 µM | TGI (786-0 renal): 0.844 µM | GI50 (SK-MEL-2 melanoma): 0.303 µM | TGI (SK-MEL-2 melanoma): 0.808 µM | GI50 (SN12C renal): 0.547 µM | TGI (SN12C renal): 1.86 µM

C[C@]12CCCC(=O)C1C[C@H](C(=O)O)CC2 (stereo partly drawn)
TGI (HCT-15 colon): > 100 µM | TGI (ACHN renal): > 100 µM | TGI (HOP-92 NSCLC): > 100 µM | TGI (SNB-75 CNS): > 100 µM | TGI (786-0 renal): > 100 µM | TGI (SK-MEL-2 melanoma): > 100 µM | TGI (HOP-62 NSCLC): > 100 µM | TGI (SN12C renal): > 100 µM

OC(c1ccccc1)c1c(-c2ccccc2)oc(-c2ccccc2)c1C(O)c1ccccc1 (stereo not drawn)
TGI (PC-3 prostate): 24.1 µM | TGI (HCT-15 colon): 36.8 µM | TGI (ACHN renal): 19.1 µM | TGI (HOP-92 NSCLC): 26.5 µM | TGI (786-0 renal): 21 µM | TGI (SK-MEL-2 melanoma): 31.5 µM | TGI (HOP-62 NSCLC): 27.9 µM | TGI (SN12C renal): 18.4 µM

Cc1sc(/N=C2/NC(=O)CS2)nc1-c1nc(/N=C2/NC(=O)CS2)sc1C
GI50 (PC-3 prostate): 16.8 µM | TGI (PC-3 prostate): > 50 µM | GI50 (BT-549 breast): > 50 µM | TGI (BT-549 breast): > 50 µM | GI50 (HCT-15 colon): > 50 µM | TGI (HCT-15 colon): > 50 µM | GI50 (ACHN renal): > 50 µM | TGI (ACHN renal): > 50 µM | GI50 (SNB-75 CNS): > 50 µM | TGI (SNB-75 CNS): > 50 µM | GI50 (786-0 renal): > 50 µM | TGI (786-0 renal): > 50 µM | GI50 (SK-MEL-2 melanoma): > 50 µM | TGI (SK-MEL-2 melanoma): > 50 µM | GI50 (HOP-62 NSCLC): 35.2 µM | TGI (HOP-62 NSCLC): > 50 µM | GI50 (SN12C renal): > 50 µM | TGI (SN12C renal): > 50 µM

CCOC(=O)CNC(=O)C(CSC(=O)N(C)O)NC(=O)CCC(N)C(=O)O (stereo not drawn)
GI50 (HCT-15 colon): > 2000 µM | TGI (HCT-15 colon): > 2000 µM | GI50 (ACHN renal): > 2000 µM | TGI (ACHN renal): > 2000 µM | GI50 (HOP-92 NSCLC): > 2000 µM | TGI (HOP-92 NSCLC): > 2000 µM | GI50 (SNB-75 CNS): > 2000 µM | TGI (SNB-75 CNS): > 2000 µM | GI50 (786-0 renal): > 2000 µM | TGI (786-0 renal): > 2000 µM | GI50 (SK-MEL-2 melanoma): > 2000 µM | TGI (SK-MEL-2 melanoma): > 2000 µM | GI50 (HOP-62 NSCLC): > 2000 µM | TGI (HOP-62 NSCLC): > 2000 µM | GI50 (SN12C renal): > 2000 µM | TGI (SN12C renal): > 2000 µM

CP(C)C.[Ag][I]
TGI (HCT-15 colon): > 100 µM | TGI (ACHN renal): > 100 µM | TGI (HOP-92 NSCLC): > 100 µM | TGI (SNB-75 CNS): 46.5 µM | TGI (786-0 renal): > 100 µM | TGI (SK-MEL-2 melanoma): > 100 µM | TGI (HOP-62 NSCLC): > 100 µM | TGI (SN12C renal): > 100 µM

CC(=O)N[C@@H](Cc1ccc(OP(=O)(O)O)cc1)C(=O)N[C@H]1CCC(=O)N2CCC[C@@H](C(=O)NCc3ccc(O)cc3)N2C1=O
GI50 (PC-3 prostate): > 25 µM | TGI (PC-3 prostate): > 25 µM | GI50 (BT-549 breast): > 25 µM | TGI (BT-549 breast): > 25 µM | GI50 (HCT-15 colon): > 25 µM | TGI (HCT-15 colon): > 25 µM | GI50 (ACHN renal): > 25 µM | TGI (ACHN renal): > 25 µM | GI50 (SNB-75 CNS): > 25 µM | TGI (SNB-75 CNS): > 25 µM | GI50 (786-0 renal): > 25 µM | TGI (786-0 renal): > 25 µM | GI50 (SK-MEL-2 melanoma): > 25 µM | TGI (SK-MEL-2 melanoma): > 25 µM | GI50 (HOP-62 NSCLC): > 25 µM | TGI (HOP-62 NSCLC): > 25 µM | GI50 (SN12C renal): > 25 µM | TGI (SN12C renal): > 25 µM

O=C1CCC(=O)C(C(=O)CCC(=O)Nc2cccc(Cl)c2)C1 (stereo not drawn)
TGI (HCT-15 colon): > 100 µM | TGI (ACHN renal): > 100 µM | TGI (HOP-92 NSCLC): > 100 µM | TGI (SNB-75 CNS): > 100 µM | TGI (786-0 renal): > 100 µM | TGI (HOP-62 NSCLC): > 100 µM | TGI (SN12C renal): > 100 µM

CCOC(=O)C1CC/C(=C(/C#N)C(=O)OC)N1 (stereo not drawn)
TGI (HCT-15 colon): > 100 µM | TGI (ACHN renal): > 100 µM | TGI (HOP-92 NSCLC): > 100 µM | TGI (SNB-75 CNS): > 100 µM | TGI (786-0 renal): > 100 µM | TGI (SK-MEL-2 melanoma): > 100 µM | TGI (HOP-62 NSCLC): > 100 µM | TGI (SN12C renal): > 100 µM

NC(=O)CCC(NC(=O)C(F)(F)F)C(=O)O (stereo not drawn)
TGI (HCT-15 colon): > 100 µM | TGI (ACHN renal): > 100 µM | TGI (HOP-92 NSCLC): > 100 µM | TGI (SNB-75 CNS): > 100 µM | TGI (786-0 renal): > 100 µM | TGI (SK-MEL-2 melanoma): > 100 µM | TGI (HOP-62 NSCLC): > 100 µM | TGI (SN12C renal): > 100 µM

Reference: PubChem BioAssay (NCI)
